This test in a line: Inhibition of Endothelin A receptor mediated (ET-1) release of arachidonic acid from rabbit renal artery vascular smooth muscle cells.

What is called IC50 is the concentration that inhibits the measured activity by half. A lower IC50 goes with inhibition by little substance.

`COc1ccc(C(=O)/C(Cc2cc(OC)c(OC)c(OC)c2)=C(\C(=O)O)c2ccc3c(c2)OCO3)cc1C` [Sodium; (Z)-2-benzo[1,3]dioxol-5-yl-4-(4-methoxy-3-methyl-phenyl)-4-oxo-3-(3,4,5-trimethoxy-benzyl)-but-2-enoate] showed an IC50 of 0.98 nM.
